Reference: patent publication US20250197374A1, “WEE1 DEGRADING COMPOUNDS AND USES THEREOF” (BRISTOL-MYERS SQUIBB COMPANY, priority 2023, published 2025)

Columns and labels:
Format in all cases: cell-based
WEE1 = target: T1, WEE1 (Homo sapiens, UniProt P30291+Q96SW2); assay: WEE1-ePL degradation assay (293T-LentiX, InCELL Hunter luminescence, 4 hr); conditions: for DC50: LentiX-HEK293T cells expressing WEE1-ePL, 4 hr incubation, read-out: 293T-LentiX WEE1-ePL Degradation 4 hr EC50; for 293T-LentiX WEE1-ePL Degradation 4 hr YMin (%): lower limit of fit, % of DMSO control signal remaining
T1 construct: C-terminal ePL-tagged (DiscoverX, Fremont, CA) full-length WEE1 expression construct; expressed in transfected cells; host or cells: LentiX-HEK293T (Invitrogen), lentivirally transduced; the cells also over-express GSPT1-GN
T1 sequence (P30291 whole entry): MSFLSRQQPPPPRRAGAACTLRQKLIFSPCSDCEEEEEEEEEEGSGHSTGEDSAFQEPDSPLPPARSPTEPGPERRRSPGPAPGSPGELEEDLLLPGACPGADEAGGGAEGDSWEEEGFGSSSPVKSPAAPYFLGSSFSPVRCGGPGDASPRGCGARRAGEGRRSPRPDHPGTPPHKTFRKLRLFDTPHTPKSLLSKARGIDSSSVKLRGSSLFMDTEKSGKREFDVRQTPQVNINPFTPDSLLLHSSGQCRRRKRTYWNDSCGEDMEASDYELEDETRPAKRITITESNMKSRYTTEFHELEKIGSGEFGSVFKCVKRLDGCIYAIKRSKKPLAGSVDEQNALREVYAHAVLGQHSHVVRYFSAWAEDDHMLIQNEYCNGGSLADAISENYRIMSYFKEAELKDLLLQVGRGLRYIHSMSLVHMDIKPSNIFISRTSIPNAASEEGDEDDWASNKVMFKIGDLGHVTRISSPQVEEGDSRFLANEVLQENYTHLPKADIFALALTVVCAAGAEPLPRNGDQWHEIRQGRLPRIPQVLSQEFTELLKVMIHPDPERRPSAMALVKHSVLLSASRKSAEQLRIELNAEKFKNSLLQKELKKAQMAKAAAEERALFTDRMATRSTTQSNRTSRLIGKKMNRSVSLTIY
T1 sequence (Q96SW2 whole entry): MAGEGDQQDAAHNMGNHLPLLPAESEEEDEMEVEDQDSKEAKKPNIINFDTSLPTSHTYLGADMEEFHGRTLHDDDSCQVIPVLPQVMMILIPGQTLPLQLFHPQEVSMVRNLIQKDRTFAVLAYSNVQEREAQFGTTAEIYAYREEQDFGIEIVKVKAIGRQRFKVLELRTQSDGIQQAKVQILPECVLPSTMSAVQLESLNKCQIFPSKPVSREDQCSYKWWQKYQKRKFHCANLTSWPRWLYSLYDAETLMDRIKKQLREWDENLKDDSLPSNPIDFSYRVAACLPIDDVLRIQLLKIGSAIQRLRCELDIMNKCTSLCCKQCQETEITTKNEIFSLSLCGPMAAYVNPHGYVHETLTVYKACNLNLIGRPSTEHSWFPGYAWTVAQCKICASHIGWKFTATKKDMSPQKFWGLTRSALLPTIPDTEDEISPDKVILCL
T1 sequence (Q16531 whole entry partner): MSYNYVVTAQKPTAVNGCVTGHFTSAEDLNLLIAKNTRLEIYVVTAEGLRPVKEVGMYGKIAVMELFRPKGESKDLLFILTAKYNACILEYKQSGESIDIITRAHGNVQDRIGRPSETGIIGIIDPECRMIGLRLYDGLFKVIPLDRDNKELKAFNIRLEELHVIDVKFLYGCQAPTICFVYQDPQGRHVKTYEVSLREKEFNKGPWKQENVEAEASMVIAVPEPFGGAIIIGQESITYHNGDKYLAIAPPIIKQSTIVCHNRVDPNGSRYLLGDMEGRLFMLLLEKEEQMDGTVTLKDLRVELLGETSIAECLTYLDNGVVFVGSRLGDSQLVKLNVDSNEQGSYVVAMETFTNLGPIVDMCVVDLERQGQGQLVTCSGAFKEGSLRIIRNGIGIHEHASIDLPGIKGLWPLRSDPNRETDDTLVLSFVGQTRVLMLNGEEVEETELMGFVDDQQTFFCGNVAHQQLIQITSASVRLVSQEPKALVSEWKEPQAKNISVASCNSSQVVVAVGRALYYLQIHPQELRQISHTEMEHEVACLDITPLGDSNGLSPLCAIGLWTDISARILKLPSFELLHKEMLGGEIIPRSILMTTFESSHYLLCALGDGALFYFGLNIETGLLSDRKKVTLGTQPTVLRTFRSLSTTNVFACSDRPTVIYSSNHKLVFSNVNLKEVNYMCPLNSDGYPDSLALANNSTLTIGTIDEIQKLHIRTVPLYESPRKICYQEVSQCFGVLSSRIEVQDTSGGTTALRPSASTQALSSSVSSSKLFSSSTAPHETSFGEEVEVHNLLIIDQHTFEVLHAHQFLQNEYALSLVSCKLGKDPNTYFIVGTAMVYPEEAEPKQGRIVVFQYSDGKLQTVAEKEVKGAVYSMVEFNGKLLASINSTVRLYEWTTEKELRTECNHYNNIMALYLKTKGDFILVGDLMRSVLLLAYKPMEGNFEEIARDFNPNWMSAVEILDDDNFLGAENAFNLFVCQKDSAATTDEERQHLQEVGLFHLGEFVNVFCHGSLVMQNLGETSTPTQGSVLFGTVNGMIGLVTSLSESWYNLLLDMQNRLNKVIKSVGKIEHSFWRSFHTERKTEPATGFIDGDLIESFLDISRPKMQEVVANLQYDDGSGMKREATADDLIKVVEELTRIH
Summary of the method: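 EC50 comes from a four-parameter logistic fit of ePL luminescence (InCELL Hunter), with DMSO control defining Ymax. Compounds ran as 10-point 3-fold dilutions from 1 or 10 µM for 4 h at 37 °C. Cells were HEK293T-LentiX with ePL-tagged full-length WEE1 and over-expressed Cereblon-resistant GSPT1-GN.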

MKN45 cells = assay: MKN45 cell proliferation assay (Cell-Titer-Glo, 120 hr); conditions: for EC50: Homo sapiens, MKN-45, 120 h, read-out: MKN45 Cell Prolif. 120 hr EC50; for MKN45 Cell Prolif. 120 hr YMin (%): minimal percent of DMSO control observed
Summary of the method: (§1)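 Growth inhibition was read as CellTiter-Glo luminescence after 120 h at 37 °C in RPMI/10% FBS, with 400 MKN45 or 800 MDA-MB-231 cells seeded per well. Compounds were tested in 10-point half-log series starting at 1 or 10 uM (0.1% DMSO), in triplicate for MKN45 and duplicate for MDA-MB-231. EC50 values are four-parameter fits to %DMSO control, and Ymin-obs is the minimal observed %DMSO.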

MDA-MB-231 cells = assay: MDA-MB-231 cell proliferation assay (Cell-Titer-Glo, 120 hr); conditions: for EC50: Homo sapiens, MDA-MB-231, 120 h, read-out: MDA-MB 231 Cell Prolif. 120 hr EC50; for MDA-MB 231 Cell Prolif. 120 hr YMin (%): minimal percent of DMSO control observed
Summary of the method: as §1

DC50 (WEE1) | 293T-LentiX WEE1-ePL Degradation 4 hr YMin (%) (WEE1) | EC50 (MKN45 cells) | EC50 (MDA-MB-231 cells) | SMILES | MKN45 Cell Prolif. 120 hr YMin (%) (MKN45 cells) | MDA-MB 231 Cell Prolif. 120 hr YMin (%) (MDA-MB-231 cells)
4 nM | 21.8% | 4 nM | 108 nM | COC[C@@H]1CN(Cc2cc(F)c3nc(COC4CCN(C)CC4)ccc3c2)C[C@H]1Oc1ccc2c(c1)CN([C@H]1CCC(=O)NC1=O)C2=O [Example 34, (3S)-3-(5-{[(3S,4S)-1-[(8-fluoro-2-{[(1-methylpiperidin-4-yl)oxy]methyl}quinolin-6-yl)methyl]-4-(methoxymethyl)pyrrolidin-3-yl]oxy}-1-oxo-2,3-dihydro-1H-isoindol-2-yl)piperidine-2,6-dione] | 6.9% | 30.7%
9 nM | 30.2% | 9 nM | 141 nM | COC[C@@H]1CN(Cc2cc(F)c3nc(C4CN(C(C)=O)C4)ccc3c2)C[C@H]1Oc1ccc2c(c1)CN([C@H]1CCC(=O)NC1=O)C2=O [Example 36, (3S)-3-(5-{[(3S,4S)-1-{[2-(1-acetylazetidin-3-yl)-8-fluoroquinolin-6-yl]methyl}-4-(methoxymethyl)pyrrolidin-3-yl]oxy}-1-oxo-2,3-dihydro-1H-isoindol-2-yl)piperidine-2,6-dione] | 10.5% | 32.4%
 | 30.1% | 1 nM | 122 nM | COC[C@@H]1CN(Cc2cc(F)c3nc(C4CN(CC(F)(F)F)C4)ccc3c2)C[C@H]1Oc1ccc2c(c1)CN([C@H]1CCC(=O)NC1=O)C2=O [Example 37, (3S)-3-(5-{[(3S,4S)-1-({8-fluoro-2-[1-(2,2,2-trifluoroethyl)azetidin-3-yl]quinolin-6-yl}methyl)-4-(methoxymethyl)pyrrolidin-3-yl]oxy}-1-oxo-2,3-dihydro-1H-isoindol-2-yl)piperidine-2,6-dione] | 11.0% | 6.3%
1 nM | 28.0% |  | 19 nM | COC[C@@H]1CN(Cc2cc3ccc(C4CCN(CC(F)(F)F)CC4)cc3cn2)C[C@H]1Oc1ccc2c(c1)CN([C@H]1CCC(=O)NC1=O)C2=O [Example 38, (3S)-3-(5-{[(3S,4S)-4-(methoxymethyl)-1-({7-[1-(2,2,2-trifluoroethyl)piperidin-4-yl]isoquinolin-3-yl}methyl)pyrrolidin-3-yl]oxy}-1-oxo-2,3-dihydro-1H-isoindol-2-yl)piperidine-2,6-dione] | 9.8% | 21.6%
133 nM | 34.3% | 38 nM | 520 nM | COC[C@@H]1CN(Cc2cc(F)c3nc(COC4CCN(C)CC4)ncc3c2)C[C@H]1Oc1ccc2c(c1)CN([C@H]1CCC(=O)NC1=O)C2=O [Example 43, (3S)-3-(5-{[(3S,4S)-1-[(8-fluoro-2-{[(1-methylpiperidin-4-yl)oxy]methyl}quinazolin-6-yl)methyl]-4-(methoxymethyl)pyrrolidin-3-yl]oxy}-1-oxo-2,3-dihydro-1H-isoindol-2-yl)piperidine-2,6-dione] | 10.0% | 51.3%
53 nM | 31.5% | 35 nM | 278 nM | COC[C@@H]1CN(Cc2cc(F)c3nc(C4CN(C(C)=O)C4)ncc3c2)C[C@H]1Oc1ccc2c(c1)CN([C@H]1CCC(=O)NC1=O)C2=O [Example 45, (3S)-3-(5-{[(3S,4S)-1-{[2-(1-acetylazetidin-3-yl)-8-fluoroquinazolin-6-yl]methyl}-4-(methoxymethyl)pyrrolidin-3-yl]oxy}-1-oxo-2,3-dihydro-1H-isoindol-2-yl)piperidine-2,6-dione] | 13.4% | 52.6%
4 nM | 26.2% | 2 nM | 18 nM | COC[C@@H]1CN(Cc2cc(F)c3nc(C4CN(CC(F)(F)F)C4)ncc3c2)C[C@H]1Oc1ccc2c(c1)CN([C@H]1CCC(=O)NC1=O)C2=O [Example 46, (3S)-3-(5-{[(3S,4S)-1-({8-fluoro-2-[1-(2,2,2-trifluoroethyl)azetidin-3-yl]quinazolin-6-yl}methyl)-4-(methoxymethyl)pyrrolidin-3-yl]oxy}-1-oxo-2,3-dihydro-1H-isoindol-2-yl)piperidine-2,6-dione] | 8.7% | 17.7%

Second part, the molecule before the results:

SMILES | DC50 (WEE1) | 293T-LentiX WEE1-ePL Degradation 4 hr YMin (%) (WEE1) | EC50 (MKN45 cells) | EC50 (MDA-MB-231 cells) | MKN45 Cell Prolif. 120 hr YMin (%) (MKN45 cells) | MDA-MB 231 Cell Prolif. 120 hr YMin (%) (MDA-MB-231 cells)
COC[C@@H]1CN(Cc2cc(F)c3nc(N4CCN(CC(F)(F)F)CC4)ncc3c2)C[C@H]1Oc1ccc2c(c1)CN([C@H]1CCC(=O)NC1=O)C2=O [Example 35, (3S)-3-(5-{[(3S,4S)-1-({8-fluoro-2-[4-(2,2,2-trifluoroethyl)piperazin-1-yl]quinazolin-6-yl}methyl)-4-(methoxymethyl)pyrrolidin-3-yl]oxy}-1-oxo-2,3-dihydro-1H-isoindol-2-yl)piperidine-2,6-dione] | 1 nM | 28.1% | 2 nM | 33 nM | 10.0% | 16.7%
COC[C@@H]1CN(Cc2cc3ccc(N4CCN(CC(F)(F)F)CC4)cc3cn2)C[C@H]1Oc1ccc2c(c1)CN([C@H]1CCC(=O)NC1=O)C2=O [Example 39, (3S)-3-(5-{[(3S,4S)-4-(methoxymethyl)-1-({7-[4-(2,2,2-trifluoroethyl)piperazin-1-yl]isoquinolin-3-yl}methyl)pyrrolidin-3-yl]oxy}-1-oxo-2,3-dihydro-1H-isoindol-2-yl)piperidine-2,6-dione] |  | 31.6% | 1 nM | 25 nM | 10.3% | 41.6%
COC[C@@H]1CN(Cc2cc3ccc(C(C)(C)O)cc3cn2)C[C@H]1Oc1ccc2c(c1)CN([C@H]1CCC(=O)NC1=O)C2=O [Example 40, (3S)-3-(5-{[(3S,4S)-1-{[7-(2-hydroxypropan-2-yl)isoquinolin-3-yl]methyl}-4-(methoxymethyl)pyrrolidin-3-yl]oxy}-1-oxo-2,3-dihydro-1H-isoindol-2-yl)piperidine-2,6-dione] | 3 nM | 30.9% | 5 nM | 228 nM | 10.2% | 1.8%
COC[C@@H]1CN(Cc2cc(F)c3nc(C(C)(C)O)ncc3c2)C[C@H]1Oc1ccc2c(c1)CN([C@H]1CCC(=O)NC1=O)C2=O [Example 41, (3S)-3-(5-{[(3S,4S)-1-{[8-fluoro-2-(2-hydroxypropan-2-yl)quinazolin-6-yl]methyl}-4-(methoxymethyl)pyrrolidin-3-yl]oxy}-1-oxo-2,3-dihydro-1H-isoindol-2-yl)piperidine-2,6-dione] | 22 nM | 30.3% | 10 nM | 151 nM | 12.5% | 39.1%
COC[C@@H]1CN(Cc2cc(F)c3nc(COC4CCOCC4)ncc3c2)C[C@H]1Oc1ccc2c(c1)CN([C@H]1CCC(=O)NC1=O)C2=O [Example 42, (3S)-3-(5-{[(3S,4S)-1-({8-fluoro-2-[(oxan-4-yloxy)methyl]quinazolin-6-yl}methyl)-4-(methoxymethyl)pyrrolidin-3-yl]oxy}-1-oxo-2,3-dihydro-1H-isoindol-2-yl)piperidine-2,6-dione] | 8 nM | 31.5% | 9 nM | 122 nM | 12.2% | 33.0%
COC[C@@H]1CN(Cc2cc(F)c3nc(N4CCN(CC(F)(F)F)CC4)ccc3c2)C[C@H]1Oc1ccc2c(c1)CN([C@H]1CCC(=O)NC1=O)C2=O [Example 44, (3S)-3-(5-{[(3S,4S)-1-({8-fluoro-2-[4-(2,2,2-trifluoroethyl)piperazin-1-yl]quinolin-6-yl}methyl)-4-(methoxymethyl)pyrrolidin-3-yl]oxy}-1-oxo-2,3-dihydro-1H-isoindol-2-yl)piperidine-2,6-dione] | 1 nM | 27.8% | 1 nM | 14 nM | 8.9% | 22.3%
COC[C@@H]1CN(Cc2cc(F)c3nc(N4C[C@H]5C[C@@H](C4)O5)ccc3c2)C[C@H]1Oc1ccc2c(c1)CN([C@H]1CCC(=O)NC1=O)C2=O [Example 47, (S)-3-(5-(((3S,4S)-1-((2-((1R,5S)-6-oxa-3-azabicyclo[3.1.1]heptan-3-yl)-8-fluoroquinolin-6-yl)methyl)-4-(methoxymethyl)pyrrolidin-3-yl)oxy)-1-oxoisoindolin-2-yl)piperidine-2,6-dione] | 1 nM | 28.7% | 1 nM | 34 nM | 9.8% | 30.0%
